This passage reports AC50 results from PubChem BioAssay AID463199 (Broad Institute, 2010).

Each structure is given as a SMILES string. The source made the active and inactive calls.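 How the source made its calls: active means AC50, the dose giving half-maximal effect, exceeds a fixed cutoff for a compound that rescues yeast growth under heat; inactive means the rest, inconclusive results apart.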 Bounds are passed on as bounds.

The AC50 is the concentration giving half of the maximal activity seen.

The subject of the experiment is S. cerevisiae Burl-1 ts mutant growth, BacTiter-Glo, 38.5C 24 h. Description: growth induction of Burl-1 ts yeast mutant, dose response, counter-screen for SUMOylation pathway inhibitor project, whole organism, S. cerevisiae, luminescence (AID 463199). On the technique in general: A counterscreen serves to expose hits that act by an unwanted route or on another target.

Consider `O=C(CSc1nc2ccc(Nc3nc(N4CCOCC4)nc(N4CCOCC4)n3)cc2s1)N1CCOCC1`, for which the AC50 was > 42 µM (inactive).
In the case of `CSc1cc(C)c(OCC(=O)Nc2c(C)nn(C)c2C)c(C)c1` it was > 42 µM (inactive); in that of `COc1ccccc1OCCSc1nc2ccccc2n1CCC(=O)O`, > 42 µM (inactive).
Turning to `Cc1ccc(N(CC(=O)Nc2cccc(C)c2)S(=O)(=O)c2cccc3nonc23)cc1`, the AC50 is > 21 µM (inactive).
Turning to `CN=C1SC(CC(=O)Nc2sc3c(c2C#N)CCCC3)C(=O)N1C` (configuration not stated), the AC50 was > 42 µM (inactive).
In the case of `COc1ccc2[nH]c(=O)c(CN(C(=O)c3ccccn3)c3ccccc3)cc2c1`, the AC50 was > 42 µM (inactive).
In the case of `COc1ccc(N2CCN(CCCNC(=O)C(=O)c3c(C)[nH]c4ccccc34)CC2)cc1` it was > 21 µM (inactive); in that of `Cc1ccc(S(=O)(=O)N2[C@@H](c3ccc(Br)cc3)C(C(=O)O)=C[C@H]2CC2CCCC2)cc1`, > 42 µM (inactive).
On to `COc1ccccc1NC(=O)Nc1ccc(Cl)c(S(=O)(=O)Nc2ccccc2OC)c1`, for which the AC50 was > 42 µM (inactive).
In the case of `COc1ccc(CN2CCN(C(=O)c3cc(-c4cccnc4)nc4ccc(Cl)cc34)CC2)c(OC)c1OC`, the AC50 was > 42 µM (inactive).
As to `COc1ccc(NC(=O)CSc2nnc(-c3ccccn3)n2-c2ccccc2)cc1OC`, the AC50 is > 42 µM (inactive).
As to `Cc1cc(C)c(NC(=O)Cn2c([N+](=O)[O-])cnc2C)c(C)c1`, the AC50 is > 42 µM (inactive).
Take `C/C(=N\N1CCN(Cc2ccccc2Cl)CC1)c1ccc([N+](=O)[O-])cc1`: the AC50 is > 42 µM (inactive).
As for `COc1ccc(C2=C(N)c3ccccc3C2=O)cc1`, the AC50 is > 42 µM (inactive).
Take `CCN(CC)CCCNC(=O)C1c2ccccc2C(=O)N(CCOC)C1c1ccc(F)cc1` (configuration not stated): the AC50 is > 21 µM (inactive).
In the case of `NC(=O)c1cc(S(=O)(=O)N2CCCC2)ccc1OCc1ccc(F)cc1` it was > 42 µM (inactive).
As to `Cc1cc(=O)n2[nH]c(-c3ccc(F)cc3)nc2n1`, the AC50 is > 42 µM (inactive).
In the case of `O=[N+]([O-])c1c(NCCCO)cc(Sc2nc3ccccc3s2)c2nonc12` it was > 42 µM (inactive).
The result for `CCNc1nc(NCC)nc(SCCOC(=O)Nc2ccccc2)n1` reads > 42 µM (inactive); that for `CC1(C)Cc2c(cnn2-c2ccc(F)cc2)C(NC(=O)CCCN2CCCCC2=O)C1` (configuration not stated), > 42 µM (inactive); that for `CCC1(CC)NC(=O)N(CC(=O)N2N=C(c3ccc(Cl)cc3)CC2c2ccco2)C1=O` (configuration not stated), > 42 µM (inactive).
As to `CCOC(=O)C1=Nc2ccccc2C1=[N+]=[N-]`, the AC50 is > 42 µM (inactive).
As to `CCCOC(=O)C1=C(C)NC2=C(C(=O)CCC2)C1c1cccs1` (configuration not stated), the AC50 is > 42 µM (inactive).
For the molecule `Cc1cc(C)cc(OC(=O)CS(=O)c2ccc(C(F)(F)F)cc2[N+](=O)[O-])c1` (configuration not stated), the AC50 was > 42 µM (inactive).
The result for `CCOC(=O)N1CCN(c2cc3[nH]c(=S)[nH]c3cc2F)CC1` reads > 42 µM (inactive).
`O=C(CN1C(=O)NC2(CCCC2)C1=O)Nc1nc2ccccc2[nH]1`: the AC50 was > 42 µM (inactive).
The result for `Cn1cc(Br)c(C(=O)Nc2nccs2)n1` reads > 42 µM (inactive).
For `Cc1ccc(NC(=O)N[C@H](C(=O)O)C(C)C)c(C)c1`, the AC50 was > 42 µM (inactive).
For `CCN(CC)CCCn1c(=S)[nH]c2ccc(Cl)cc2c1=O`, the half-maximal activity concentration (AC50) was 38.6 µM.
Take `CCOc1c(Cl)cc(CNCC(O)c2ccccc2)cc1OC` (configuration not stated): the AC50 was > 42 µM (inactive).
The result for `COc1ccccc1NC(=O)CSc1nc(O)c(Cc2ccccc2)c(=O)[nH]1` reads > 42 µM (inactive).
The result for `CCCn1nc(C(=O)NNC(=O)c2cc(S(=O)(=O)NC)ccc2Br)c2ccccc2c1=O` reads > 42 µM (inactive); that for `CN1CC2(C)OC(=O)C(Cl)=C2CC1c1ccccc1` (configuration not stated), > 42 µM (inactive); that for `CC1(C)C(C=C(Cl)Cl)C1C(=O)OCc1cccc(Oc2ccccc2)c1` (configuration not stated), > 42 µM (inactive).
For the molecule `O=C(Cc1ccc(Cl)cc1Cl)OCC(=O)c1ccc[nH]1`, the AC50 is > 42 µM (inactive).
Consider `COC/C=C/C1=CC2=CC(=O)C(C)(OC(=O)c3cnc4ccccc4n3)C(=O)C2=CN1CCOC` (configuration not stated), for which the AC50 was > 42 µM (inactive).
In the case of `Cc1ccc(CC2CC(=O)N(c3ccc4c(c3)OCCO4)C2=O)cc1` (configuration not stated), the AC50 was > 42 µM (inactive).
As to `CC(=O)c1cc(C)ccc1OC(=O)c1ccco1`, the AC50 was > 42 µM (inactive).
In the case of `Cn1c(NCc2ccco2)nc2c1c(=O)n(Cc1ccc(Cl)cc1)c(=O)n2C`, the AC50 was > 42 µM (inactive).
Consider `CCOC(=O)CCN(c1ccccc1)S(=O)(=O)c1ccc(-c2ccc(=O)[nH]n2)s1`, for which the AC50 is > 42 µM (inactive).
In the case of `CCOc1ccc(Br)cc1S(=O)(=O)N1CCC(C(N)=O)CC1` it was > 42 µM (inactive).
Regarding `O=C(Nc1cccc(Cl)c1)OCc1cncs1`, the AC50 is > 42 µM (inactive).
In the case of `CN(C=O)CP(=O)(O)CN(C)C=O` it was > 42 µM (inactive); in that of `CCCc1ccccc1OCCNC(C)=O`, > 42 µM (inactive); in that of `Cc1nn(C)c(C)c1/C=N/NC(=O)C(C)(C)Oc1ccc(Cl)cc1`, > 42 µM (inactive).
In the case of `CC1(C)c2[nH]c3ccccc3c2C[C@H]2C(=O)N(Cc3cccc(F)c3)C(=O)N21` it was > 42 µM (inactive).
The result for `CCCCC(=O)N/N=C(\C)CC(=O)Nc1cc(Cl)ccc1OC` reads > 42 µM (inactive); that for `CN1c2ccccc2-c2nc3ccccc3n2C1c1ccncc1` (configuration not stated), > 42 µM (inactive); that for `COc1ccc(Cl)cc1C(=O)NCCc1ccc(S(=O)(=O)NC(=O)NC2CCCCC2)cc1`, > 42 µM (inactive).
Consider `CCCCCC(=O)Nc1ccc(-c2csc(N)n2)cc1`, for which the AC50 was > 42 µM (inactive).
Regarding `COC(=O)c1sccc1NC(=O)CC1C(=O)NCCN1C(=O)Nc1ccc(F)cc1F` (configuration not stated), the AC50 was > 42 µM (inactive).
As to `Cc1nc(N/N=C\c2ccc3c(c2)OCO3)sc1C`, the AC50 was > 42 µM (inactive).
Consider `O=C(c1cc2ccccc2o1)N1CCN(C/C=C/c2ccccc2)CC1`, for which the AC50 is > 42 µM (inactive).
Turning to `Cc1ccc(NC(=O)CN2C(=O)COc3ccc(S(=O)(=O)N4CCOCC4)cc32)cc1F`, the AC50 is > 42 µM (inactive).
Consider `CCN(CC)CCCN(Cc1cc2cc(OC)ccc2[nH]c1=O)C(=O)Nc1ccc(F)cc1`, for which the AC50 is > 42 µM (inactive).
In the case of `COc1ccc(OC)c(NC(=O)CNC(=O)Cn2ccc3ccccc3c2=O)c1` it was > 42 µM (inactive); in that of `Cc1c(C(=O)OCC(=O)Nc2ccc(S(N)(=O)=O)cc2)oc2c1ccc1ccccc12`, > 42 µM (inactive); in that of `O=C1C2CC=C(Cl)CC2C(=O)N1c1ncn[nH]1` (configuration not stated), > 42 µM (inactive).
With `Fc1ccccc1-n1cc(-c2ccccc2)[nH]c1=S`, the AC50 was > 42 µM (inactive).
Regarding `COc1ccc(NC(=O)Cn2c(=O)cnc3ccccc32)cc1S(=O)(=O)N1CCCCC1`, the AC50 was > 42 µM (inactive).
For the molecule `Cc1ccc(S(=O)(=O)NCc2ccc(C(=O)N3CCN(c4ccccn4)CC3)cc2)cc1`, the AC50 was > 42 µM (inactive).
In the case of `CSc1nsc(SCC(=O)Nc2cccc(C(=O)O)c2)n1` it was > 42 µM (inactive).
For `O=C(NCc1ccco1)C1CC(=O)N(c2ccc(Cl)cc2)C1` (configuration not stated), the AC50 was > 42 µM (inactive).
As for `C/C(=C\C(=O)N1CCc2ccccc21)C(=O)O`, the AC50 is > 42 µM (inactive).
The result for `NC(=O)C1CCCN(C(=S)Nc2cccc3ccccc23)C1` (configuration not stated) reads > 42 µM (inactive).
On to `COc1cccc(CN2CCN(C(=O)c3cccc4ccccc34)CC2)c1OC`, for which the AC50 is > 42 µM (inactive).
As for `CCCNC(=O)CN(c1ccc(F)cc1)S(=O)(=O)c1ccc2c(c1)OCCO2`, the AC50 is > 42 µM (inactive).
Turning to `CCCC(=O)Nc1ccc(Sc2ccc([N+](=O)[O-])cc2)cc1`, the AC50 is > 42 µM (inactive).
Take `COC(=O)c1cccc(NC(=O)c2ccc[n+]([O-])c2)c1`: the AC50 is > 42 µM (inactive).
In the case of `Cc1ccc(C)c(NC(=S)NC(=O)c2cncc(Br)c2)c1` it was > 42 µM (inactive); in that of `Oc1c(Br)cc(Br)cc1C=Nc1cccnc1`, > 42 µM (inactive).
On to `CC(C)CCNC(=O)Nc1ccc2c(c1)N(C)C(=O)CS2`, for which the AC50 is > 42 µM (inactive).
Regarding `COc1ccccc1CNC(=O)CCC(=O)Nc1nnc(C(C)C)s1`, the AC50 was > 42 µM (inactive).
With `COc1cc(SC)ccc1C(=O)Nc1cc(C)c(OCC(=O)N2CCOCC2)c(C)c1`, the AC50 was > 42 µM (inactive).
Take `COc1ccc2c(c1)[C@H]1[C@H](CO2)[C@H](c2ccccc2)[C@]2(C)C(=O)Nc3ccc(Br)cc3C(=O)N12`: the AC50 is > 42 µM (inactive).
With `COc1ccc(C2C3=C(CC(C)(C)CC3=O)Nc3n[nH]c(C)c32)cc1` (configuration not stated), the AC50 is > 42 µM (inactive).
Turning to `CCNCc1nc2cc(Cl)ccc2c(=O)[nH]1`, the AC50 is > 42 µM (inactive).
In the case of `O=C1c2ccccc2S(=O)(=O)N1Cc1cc(=O)n2ccsc2n1`, the AC50 is > 42 µM (inactive).
In the case of `CS(=O)(=O)N(CC(=O)N1CCN(c2ccccc2F)CC1)C1CCCCC1`, the AC50 is > 42 µM (inactive).
As to `COc1ccc(CCN2CC(C(=O)N(C)CC(=O)Nc3cccc(F)c3)CC2=O)cc1OC` (configuration not stated), the AC50 was > 42 µM (inactive).
Take `O=C1CCN(Cc2ccccc2)CCN1CCOc1ccccc1`: the AC50 was > 42 µM (inactive).
Consider `CC(C)[N+]1(C)[C@@H]2CC[C@@H]1CC(OC(=O)C(CO)c1ccccc1)C2` (some centres not stated), for which the AC50 is > 42 µM (inactive).
The result for `Cc1cc(-c2nnc3sc(C4CCCCC4)nn23)n[nH]1` reads > 42 µM (inactive); that for `COc1cccc(CN(C)CC2CCCN(CCc3ccc(Cl)cc3)C2)c1OC` (configuration not stated), > 42 µM (inactive).
Turning to `C=CCOC(=O)C(C#N)c1nc2ccccc2nc1N1CCN(Cc2ccccc2)CC1` (configuration not stated), the AC50 was > 42 µM (inactive).
On to `O=C(Cn1sc2ccccc2c1=O)NC12CC3CC(CC(C3)C1)C2`, for which the AC50 was > 42 µM (inactive).
On to `Cc1sc(NC(=O)c2ccc(F)cc2)c(CN2CCCCCC2)c1C`, for which the AC50 was > 42 µM (inactive).
